US20230116972A1, “CD38 MODULATORS AND METHODS OF USE THEREOF” (Cytokinetics, Inc., priority 2021, published 2023)

Experiments:
human CD38 = target: T1, human CD38 (Homo sapiens, UniProt P28907); assay: human recombinant CD38 enzyme assay (hydrolysis of NAD+); format: biochemical; details: human recombinant CD38, 0.4 nM enzyme, 62.5 μM NAD+; read-out: hCD38 BioChem IC50
T1 sequence (P28907 1-300): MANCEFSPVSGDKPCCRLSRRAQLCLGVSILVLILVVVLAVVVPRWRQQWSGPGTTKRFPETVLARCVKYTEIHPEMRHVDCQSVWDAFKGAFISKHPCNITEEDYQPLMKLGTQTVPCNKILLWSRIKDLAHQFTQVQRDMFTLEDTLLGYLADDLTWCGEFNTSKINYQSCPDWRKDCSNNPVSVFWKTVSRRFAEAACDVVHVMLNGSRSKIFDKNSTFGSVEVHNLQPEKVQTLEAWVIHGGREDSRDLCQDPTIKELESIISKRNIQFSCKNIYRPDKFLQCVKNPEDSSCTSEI
Procedure: (§1) Compounds described herein were assayed for their ability to inhibit the hydrolysis of NAD+ by the protein CD38. The human and mouse recombinant enzyme assays measure the inhibition of the enzyme activity by compounds using recombinant enzymes and substrates in a buffered cell-free system. The assay conditions closely mimic cellular environments. Dose responses were measured using an assay to detect the hydrolysis of NAD+. All experiments were performed in the 384-well format. […] Enzyme reactions were initiated with the addition of 10 μL of a solution containing NAD+ substrate. Subsequent detection of remaining NAD+ was determined by first converting NAD+ to NADH using alcohol dehydrogenase, then using the resulting NADH to reduce resazurine to the fluorescent product resorufin. […] Following an incubation of 60 min at ambient temperature, 10 μL of 120 mM ethanol+20 U/ml alcohol dehydrogenase+30 mM semicarbazide+0.03 mM CD38 inhibitor in 50 mM HEPES, pH 7.5, 0.2 mg/ml BSA, was added and incubated at ambient temperature for 15 min. Then 10 μl 0.32 mM NaOH was added to stop the ADH reaction (plates incubated at ambient temperature for 15 min), followed by 30 μL of 0.05 mM resazurine+1000 mU/ml Diaphorase in 200 mM Tris-HCl, pH 7.7 for 15 min at ambient temperature. The plates were read for fluorescence (Excitation/Emission=540 nm/590 nm) using an EnVision plate reader. […] Note that, in Table 4, the “Compound No” corresponds to the compound numbers in Table 1.

mouse CD38 = target: T2, mouse CD38 (Mus musculus, UniProt P56528); assay: mouse recombinant CD38 enzyme assay (hydrolysis of NAD+); format: biochemical; details: read-out: mCD38 BioChem IC50
T2 sequence (P56528 1-304): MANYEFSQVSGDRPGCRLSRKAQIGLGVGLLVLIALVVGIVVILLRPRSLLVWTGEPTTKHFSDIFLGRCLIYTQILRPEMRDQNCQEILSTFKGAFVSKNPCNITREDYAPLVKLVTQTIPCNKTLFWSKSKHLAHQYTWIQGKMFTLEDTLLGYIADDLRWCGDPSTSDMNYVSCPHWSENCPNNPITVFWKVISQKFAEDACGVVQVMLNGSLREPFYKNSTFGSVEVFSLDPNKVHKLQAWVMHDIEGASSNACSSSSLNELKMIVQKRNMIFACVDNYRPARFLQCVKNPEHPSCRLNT
Procedure: as §1

| Compound | IC50 (human CD38) [nM] | IC50 (mouse CD38) [nM] |
| --- | --- | --- |
| O=C(Nc1cccnc1)c1cc(C(F)(F)F)cc(-c2cncs2)n1 [Compound 41, N-(pyridin-3-yl)-6-(thiazol-5-yl)-4-(trifluoromethyl)picolinamide] | 1210 | 244 |
| O=C(Nc1ccc(C(F)(F)F)nc1)c1cccc(-c2cncs2)n1 [Compound 50, 6-(thiazol-5-yl)-N-(6-(trifluoromethyl)pyridin-3-yl)picolinamide] | 1440 | 855 |
| Cc1ccc(NC(=O)c2cccc(-c3cncs3)n2)cn1 [Compound 51, N-(6-methylpyridin-3-yl)-6-(thiazol-5-yl)picolinamide] | 1200 | 487 |
| O=C(NC1(c2ccc(C(F)(F)F)cc2)COC1)c1cccc(-n2ccnc2)n1 [Compound 58, 6-(1H-imidazol-1-yl)-N-(3-(4-(trifluoromethyl)phenyl)oxetan-3-yl)picolinamide] | 2180 | 1040 |
| NC(=O)c1cn(-c2cccc(C(=O)Nc3ccc(C(F)(F)F)nc3)n2)cn1 [Compound 76, 6-(4-carbamoyl-1H-imidazol-1-yl)-N-(6-(trifluoromethyl)pyridin-3-yl)picolinamide] | 905 | 3200 |
| CO[C@H]1CC[C@H](NC(=O)c2cc(C3CC3)nc(-c3cncs3)n2)CC1 [Compound 108, 6-Cyclopropyl-N-((1r,4r)-4-methoxycyclohexyl)-2-(thiazol-5-yl)pyrimidine-4-carboxamide] | 711 | 33 |
| C[C@H]1CC[C@H](NC(=O)c2ccnc(-c3cncs3)n2)CC1 [Compound 112, N-((1r,4r)-4-methylcyclohexyl)-2-(thiazol-5-yl)pyrimidine-4-carboxamide] | 639 | 158 |
| O=C(Nc1ccc(C(F)(F)F)nc1)c1cc(C(F)(F)F)nc(-c2cncs2)n1 [Compound 115, 2-(thiazol-5-yl)-6-(trifluoromethyl)-N-(6-(trifluoromethyl)pyridin-3-yl)pyrimidine-4-carboxamide] | 1260 | 494 |
| CO[C@H]1CC[C@H](NC(=O)c2cc(O)nc(-n3ccnc3)n2)CC1 [Compound 126, 6-hydroxy-2-(1H-imidazol-1-yl)-N-((1r,4r)-4-methoxycyclohexyl)pyrimidine-4-carboxamide] | 841 | 84 |
| CO[C@H]1CC[C@H](NC(=O)c2cc(C)cc(-c3cncs3)n2)CC1 [Compound 133, N-(4-methoxycyclohexyl)-4-methyl-6-(thiazol-5-yl)picolinamide] | 1730 | 135 |
| COC[C@H]1CC[C@H](NC(=O)c2ccnc(-c3cncs3)n2)CC1 [Compound 139, N-((1r,4r)-4-(methoxymethyl)cyclohexyl)-2-(thiazol-5-yl)pyrimidine-4-carboxamide] | 1010 | 232 |
| O=C(N[C@H]1CC[C@H](CO)CC1)c1ccnc(-c2cncs2)n1 [Compound 140, N-((1r,4r)-4-(hydroxymethyl)cyclohexyl)-2-(thiazol-5-yl)pyrimidine-4-carboxamide] | 747 | 117 |
| O=C(N[C@H]1CC[C@H](CO)CC1)c1cc(C2CC2)nc(-c2cncs2)n1 [Compound 141, 6-cyclopropyl-N-((1r,4r)-4-(hydroxymethyl)cyclohexyl)-2-(thiazol-5-yl)pyrimidine-4-carboxamide] | 761 | 28 |
| O=C(NC1CCS(=O)(=O)CC1)c1cc(C2CC2)nc(-c2cncs2)n1 [Compound 142, 6-cyclopropyl-N-(1,1-dioxidotetrahydro-2H-thiopyran-4-yl)-2-(thiazol-5-yl)pyrimidine-4-carboxamide] | 1720 | 161 |
| O=C(Nc1ccc(C(F)(F)F)nc1)c1cccc(-n2cnnc2)n1 [Compound 143, 6-(4H-1,2,4-triazol-4-yl)-N-(6-(trifluoromethyl)pyridin-3-yl)picolinamide] | 2040 | 1970 |
| O=C(Nc1ccc(C(F)F)nc1)c1nccc(-c2cncs2)n1 [Compound 150, N-(6-(difluoromethyl)pyridin-3-yl)-4-(thiazol-5-yl)pyrimidine-2-carboxamide] | 1060 | 4990 |
| O=C(Nc1ccc(C(F)F)nc1)c1cc(N2CCCC2)cc(-c2cncs2)n1 [Compound 179, N-(6-(Difluoromethyl)pyridin-3-yl)-4-(pyrrolidin-1-yl)-6-(thiazol-5-yl)picolinamide] | 1380 | 142 |

Molecules with a lower IC50 (human CD38), results first:

| IC50 (human CD38) [nM] | IC50 (mouse CD38) [nM] | Compound |
| --- | --- | --- |
| 569 | 166 | CO[C@H]1CC[C@H](NC(=O)c2ccnc(-c3cncs3)n2)CC1 [Compound 113, N-((1r,4r)-4-methoxycyclohexyl)-2-(thiazol-5-yl)pyrimidine-4-carboxamide] |
| 312 | 66 | O=C(Nc1ccc(C(F)(F)F)nc1)c1cc(C2CC2)nc(-c2cncs2)n1 [Compound 109, 6-cyclopropyl-2-(thiazol-5-yl)-N-(6-(trifluoromethyl)pyridin-3-yl)pyrimidine-4-carboxamide] |
| 214 | 46 | CO[C@H]1CC[C@H](NC(=O)c2cc(C(C)C)nc(-n3ccnc3)n2)CC1 [Compound 167, 2-(1H-imidazol-1-yl)-6-isopropyl-N-((1r,4r)-4-methoxycyclohexyl)pyrimidine-4-carboxamide] |
| 78 | 8 | CO[C@H]1CC[C@H](NC(=O)c2cc(N3CCCC3)cc(-n3ccnc3)n2)CC1 [Compound 180, 6-(1H-imidazol-1-yl)-N-(4-methoxycyclohexyl)-4-(pyrrolidin-1-yl)picolinamide] |
| 57 | 13 | CO[C@H]1CC[C@H](NC(=O)c2cc(C(C)(C)O)nc(-c3cncn3C)n2)CC1 [Compound 178, 6-(2-Hydroxypropan-2-yl)-N-((1r,4r)-4-methoxycyclohexyl)-2-(1-methyl-1H-imidazol-5-yl)pyrimidine-4-carboxamide] |
| 56 | 16 | CO[C@H]1CC[C@H](NC(=O)c2cc(C3CCC3)nc(-n3ccnc3)n2)CC1 [Compound 184, 6-cyclobutyl-2-(1H-imidazol-1-yl)-N-((1r,4r)-4-methoxycyclohexyl)pyrimidine-4-carboxamide] |
| 35 | 9 | Cn1cncc1-c1nc(C(=O)N[C@H]2CC[C@H](C(F)F)CC2)cc(C(C)(C)O)n1 [Compound 177, N-((1r,4r)-4-(difluoromethyl)cyclohexyl)-6-(2-hydroxypropan-2-yl)-2-(1-methyl-1H-imidazol-5-yl)pyrimidine-4-carboxamide] |
| 28 | 19 | Cn1cncc1-c1nc(C(=O)Nc2ccc(C(F)(F)F)nc2)cc(C(C)(C)O)n1 [Compound 176, 6-(2-hydroxypropan-2-yl)-2-(1-methyl-1H-imidazol-5-yl)-N-(6-(trifluoromethyl)pyridin-3-yl)pyrimidine-4-carboxamide] |
| 27 | 4 | CO[C@H]1CC[C@H](NC(=O)c2cc(C3CC3)nc(-n3ccnc3)n2)CC1 [Compound 160, 6-cyclopropyl-2-(1H-imidazol-1-yl)-N-((1r,4r)-4-methoxycyclohexyl)pyrimidine-4-carboxamide] |
| 14 | 2 | CO[C@H]1CC[C@H](NC(=O)c2cc(C3CCC3)nc(-c3cncn3C)n2)CC1 [Compound 181, 6-Cyclobutyl-N-((1r,4r)-4-methoxycyclohexyl)-2-(1-methyl-1H-imidazol-5-yl)pyrimidine-4-carboxamide] |
| 11 | 2 | Cn1cncc1-c1nc(C(=O)NC2CCC(F)(F)CC2)cc(C2CCC2)n1 [Compound 182, 6-cyclobutyl-N-(4,4-difluorocyclohexyl)-2-(1-methyl-1H-imidazol-5-yl)pyrimidine-4-carboxamide] |
| 7 | 2 | Cn1cncc1-c1nc(C(=O)Nc2ccc(C(F)F)nc2)cc(C2CCC2)n1 [Compound 183, 6-cyclobutyl-N-(6-(difluoromethyl)pyridin-3-yl)-2-(1-methyl-1H-imidazol-5-yl)pyrimidine-4-carboxamide] |
